Tests used:
Botrytis cinerea = Botrytis cinerea rot on wounded apple and banana fruit; type: in vivo; parameters: key: Different results are indicated by different letters; Different results are indicated by different letters; Different results are indicated by different letters; Different results are indicated by different letters; Different results are indicated by different letters
Excerpt: Tested fruit: apple (cv Elstar) and a banana (cv Cavendish) from organic origin/SKAL certified. SKAL is a semi-governmental Dutch organization that controls organic production in the Netherlands.
Used pathogen: Botrytis cinerea spore-suspension containing ˜3×10^5 propagules (spores)/ml.
Application: Fruit peel was damaged with a cork borer, depth ˜0.5 cm into the fruit, 2 wounds per apple fruit; 2 wounds per banana fruit. 30 microliters of a freshly prepared spore suspension of B. cinerea (estimated 3×10^5 spores/ml) were applied by pipette onto each wound. Subsequently, the spore-suspension was allowed to air-dry for 3 hours. 50 microliters of fungicide suspensions 1-6 were applied by pipette to each wound.
All fruits were kept at room temperature (20° C.).
Replicates: All treatments (1-6) were performed on 6 individual apples and 6 individual bananas with 2 wounds each resulting in 12 wounds per fruit per treatment. The recorded observed antifungal activity is the reduction (in percentages) of the average surface of the rot as observed in the 12 wounds compared to the rot surface of the untreated control.
Observation: All wounds were inspected daily for visual symptoms of fruit rot and/or fungus growth. Rot surface was determined after 5 and 7 days (see Tables 1, 2 and 3). The recorded observed antifungal activity is the surface of the rot.

Penicillium discolor = Penicillium discolor rot on wounded apples cv Gala; type: in vivo; settings: rot surface area vs untreated control, phosphite 16 mM, natamycin 100 ppm
Protocol: Tested fruit: apples cv Gala from organic origin/SKAL certified. SKAL is a semi-governmental Dutch organization that controls organic production in the Netherlands. Wounds of the apples were checked at day 3. All phosphite concentrations were tested at a concentration of 16 mM of phosphonate. Natamycin (95%, Freda) solo and in combination was tested at a concentration of 100 ppm. […] Used pathogen: Penicillium discolor spore-suspension containing 4*10E6 spores/ml. Application: The fruit peel of the apple was damaged with a cork borer, ø4 mm and depth ˜0.5 cm into the fruit, with 2 wounds per apple. 40 microliter of a freshly prepared spore suspension of P. discolor was applied by pipette onto each wound. Subsequently, the spore-suspension was allowed to air-dry for 4 hours. Then, 50 microliter of a treatment as presented in the list above was applied by pipette to each wound. All fruits were kept at room temperature (20° C.). Wounds of the apples were checked after 4, 7 and 9 days of incubation. The efficacy is calculated by measuring the surface area (square mm) of the rot on the apples, and compared to the untreated control (see Table 4). Replicates: All treatments for the apple experiment were performed on six individual apples with two wounds each resulting in 12 wounds per treatment.

C#CCOc1ccc(CCNC(=O)C(OCC#C)c2ccc(Cl)cc2)cc1OC (racemic) [mandipropamid, (RS)-2-(4-chloorfenyl)-N-[3-methoxy-4-(prop-2-ynyloxy)fenethyl]-2-(prop-2-ynyloxy)acetamide]
Effect on fungicidal attack of Botrytis on apple and banana (Botrytis cinerea; Table 1, phosphonate Control, mandipropamid 1/16 label): e | Effect on fungicidal attack of Botrytis on apple and banana (Botrytis cinerea; Table 1, phosphonate Control, mandipropamid ¼ label): e | Effect on fungicidal attack of Botrytis on apple and banana (Botrytis cinerea; Table 1, phosphonate Control, mandipropamid ½ label): d | Effect on fungicidal attack of Botrytis on apple and banana (Botrytis cinerea; Table 1, phosphonate Control, mandipropamid ⅛ label): e | Effect on fungicidal attack of Botrytis on apple and banana (Botrytis cinerea; Table 3, Na2HPO3 part, phosphonate Control, mandipropamid ¼ label): d | Effect on fungicidal attack of Botrytis on apple and banana (Botrytis cinerea; Table 3, Na2HPO3 part, phosphonate Control, mandipropamid ⅛ label): e | Effect on fungicidal attack of Botrytis on apple and banana (Botrytis cinerea; Table 3, NaH2PO3 part, phosphonate Control, mandipropamid ¼ label): e | Effect on fungicidal attack of Botrytis on apple and banana (Botrytis cinerea; Table 3, NaH2PO3 part, phosphonate Control, mandipropamid ½ label): d

C[C@@H]1C/C=C/C=C/C=C/C=C/[C@H](OC2O[C@H](C)[C@@H](O)[C@H](N)[C@@H]2O)C[C@@H]2O[C@](O)(C[C@@H](O)C[C@H]3O[C@@H]3/C=C/C(=O)O1)C[C@H](O)[C@H]2C(=O)O (stereo partly drawn) [Natamycin, (1R,3S,5R,7R, 8E,12R,14E,16E,18E,20E,22R,24S,25R,26S)-22-[(3-amino-3,6-dideoxy-D-mannopyranosyl)oxy]-1,3,26-trihydroxy-12-methyl-10-oxo-6,11,28-trioxatricyclo[22.3.1.05,7]octacosa-8,14,16,18,20-pentaene-25-carboxylic acid]
Efficacy (%) (Penicillium discolor; Day 4): 23% | Efficacy (%) (Penicillium discolor; Day 7): 10% | Efficacy (%) (Penicillium discolor; Day 9): 9%

O=[PH]([O-])O.[Na+] [NaH2PO3, monosodium dihydrogen phosphite]
Effect on fungicidal attack of Botrytis on apple and banana (Botrytis cinerea; Table 3, NaH2PO3 part, Concentration 1, mandipropamid control): d | Effect on fungicidal attack of Botrytis on apple and banana (Botrytis cinerea; Table 3, NaH2PO3 part, Concentration 2, mandipropamid control): c | Effect on fungicidal attack of Botrytis on apple and banana (Botrytis cinerea; Table 3, NaH2PO3 part, Concentration 3, mandipropamid control): b

COCC(=O)N(c1c(C)cccc1C)C(C)C(=O)OC (racemic) [mefenoxam, methyl N-(methoxyacetyl)-N-(2,6-xylyl)-DL-alaninate]
Effect on fungicidal attack of Botrytis on apple and banana (Botrytis cinerea; Table 2, phosphonate Control, mefenoxam ¼ label): e

— US20190254285A1, “SODIUM PHOSPHITE COMBINATIONS” (priority 2016, published 2019)
